One block for each molecule: values may come before it.
Test: solvent given as SMILES

Structure (SMILES): N#Cc1ccc(C2=CC3=c4cc(-c5ccc(C#N)cc5)c5nc(C(F)(F)C(F)(F)C(F)(F)F)nc6c(-c7ccc(C#N)cc7)cc(c4c65)C4=CC(c5ccc(C#N)cc5)=C5N=C(C(F)(F)C(F)(F)C(F)(F)F)N=C2C5C43)cc1 (stereo unspecified)
emission maximum (in C1CCOC1): 518 nm

Structure (SMILES): O=C1O[B-]2(OC1=O)OC(c1ccccc1)=CC(c1ccc3ccccc3c1)=[O+]2
emission maximum (in CC#N): 555 nm | emission maximum (in ClC(Cl)(Cl)Cl): 451 nm

Structure (SMILES): CC(C)[Si](C#Cc1c2ccc(C(C)(C)C)cc2c(C#C[Si](C(C)C)(C(C)C)C(C)C)c2ccc(C(C)(C)C)cc12)(C(C)C)C(C)C
emission maximum (in Cc1ccccc1): 461 nm

Structure (SMILES): O=C(/C=C/c1ccc(O)c(O)c1)O[C@H](Cc1ccc(O)c(O)c1)C(=O)O
emission maximum (in C1CCOC1): 397 nm | emission maximum (in CC#N): 413 nm | emission maximum (in CCCC#N): 406 nm | emission maximum (in CCO): 417 nm | emission maximum (in CN(C)C=O): 420 nm | emission maximum (in CO): 432 nm | emission maximum (in CS(C)=O): 432 nm | emission maximum (in ClCCl): 396 nm | emission maximum (in O): 444 nm

Structure (SMILES): Cc1cc(C)n2c1C=C1c3ccccc3C(c3c[nH]c4ccccc34)=[N+]1[B-]2(F)F
emission maximum (in C1CCOC1): 606 nm | emission maximum (in CC#N): 602 nm | emission maximum (in CCCCCC): 598 nm | emission maximum (in CO): 603 nm | emission maximum (in Cc1ccccc1): 608 nm | emission maximum (in ClCCl): 606 nm

Structure (SMILES): c1ccc(-c2nc(-c3ccccc3)nc(-c3cc(-n4c5ccccc5c5ncccc54)c(-n4c5ccccc5c5ncccc54)c(-n4c5ccccc5c5ncccc54)c3)n2)cc1
emission maximum (in Cc1ccccc1): 435.76 nm

Structure (SMILES): Cc1cccc(NC(=O)c2ccc(N(C)C)cc2)c1
emission maximum (in C1CCCCC1): 452 nm | emission maximum (in C1CCOC1): 518 nm | emission maximum (in CC#N): 502 nm | emission maximum (in CCOCC): 498 nm

Structure (SMILES): CC(C)(C)c1ccc2c(c1)c1cc(C(C)(C)C)ccc1n2-c1ccc2c(c1)C(=O)c1ccc(-n3c4ccc(C(C)(C)C)cc4c4cc(C(C)(C)C)ccc43)cc1C2=O
emission maximum (in Cc1ccccc1): 602 nm | emission maximum (in c1ccc2c(c1)c1ccccc1n2-c1ccc(-c2ccc(-n3c4ccccc4c4ccccc43)cc2)cc1): 575 nm

Structure (SMILES): CC1(C)CC(=O)c2c(F)c(F)c(F)c(F)c2N1
emission maximum (in CC#N): 449 nm | emission maximum (in CCO): 479 nm

Structure (SMILES): Fc1c(F)c(F)c([B-]2(c3c(F)c(F)c(F)c(F)c3F)Oc3c(ccc4c5c(ccc34)C=[N+](c3ccccc3)[B-](c3c(F)c(F)c(F)c(F)c3F)(c3c(F)c(F)c(F)c(F)c3F)O5)C=[N+]2c2ccccc2)c(F)c1F
emission maximum (in C1CCOC1): 578 nm | emission maximum (in CC#N): 577 nm | emission maximum (in CC(C)=O): 578 nm | emission maximum (in Cc1ccccc1): 580 nm | emission maximum (in ClCCl): 580 nm

Structure (SMILES): CCCCCCCCOc1ccc(-c2c3c4n(c(-c5ccc(OCCCCCCCC)cc5)c3c3n2[B-](F)(F)[n+]2c(ccc5ccccc52)N=3)[B-](F)(F)[n+]2c(ccc3ccccc32)N=4)cc1
emission maximum (in ClC(Cl)Cl): 682 nm

Structure (SMILES): CCCCNc1ccc(NCCCC)c2c1C(=O)c1ccccc1C2=O
emission maximum (in C1CCCCC1): 665 nm | emission maximum (in C1COCCO1): 672 nm | emission maximum (in CC(C)=O): 671 nm | emission maximum (in CCCCCCCCCCO): 668 nm | emission maximum (in CCCCCCCO): 661 nm | emission maximum (in CCCCCCO): 670 nm | emission maximum (in CCCCO): 671 nm | emission maximum (in CCO): 674 nm | emission maximum (in CN(C)C=O): 664 nm | emission maximum (in CO): 666 nm | emission maximum (in CS(C)=O): 678 nm | emission maximum (in ClC(Cl)(Cl)Cl): 675 nm | emission maximum (in c1ccccc1): 667 nm

Structure (SMILES): Cc1cccc2[n+]1[B-](F)(F)n1c(c3cccc4cccc1c43)=N2
emission maximum (in C1CCOC1): 496 nm | emission maximum (in CC#N): 495 nm | emission maximum (in CCCCCC): 494 nm | emission maximum (in Cc1ccccc1): 498 nm | emission maximum (in ClCCl): 521 nm

Structure (SMILES): CCCCCCc1ccc(-n2c3[n+](c4c5ccccc5c5ccccc5c42)[B-](C)(C)c2ccccc2-3)cc1
emission maximum (in C1CCOC1): 384 nm | emission maximum (in CC#N): 385 nm | emission maximum (in Cc1ccccc1): 385 nm | emission maximum (in ClCCl): 385 nm

Next, values leading:

emission maximum (in C1CCCCC1): 377 nm
Structure (SMILES): COc1ccc(-c2ccc(-c3ccc(C#N)cc3)cc2)cc1

emission maximum (in ClCCl): 580 nm
Structure (SMILES): Brc1cc2nc3cc4c5c(cccc5c3nc2cc1Br)C(c1ccccc1)=C(c1ccccc1)O4

emission maximum (in CCOC(C)=O): 442 nm
Structure (SMILES): CCn1c(-c2ccc(-c3ccc4c(c3)C(C)(C)c3ccccc3-4)cc2)c(-c2ccc3ccccc3c2)c(-c2ccc3ccccc3c2)c1-c1ccc(-c2ccc3c(c2)C(C)(C)c2ccccc2-3)cc1

emission maximum (in CC#N): 430 nm | emission maximum (in ClCCl): 417 nm
Structure (SMILES): Cc1cc(-c2ccc(C(C)(C)C)cc2)cc(C)[o+]1

emission maximum (in ClCCl): 371 nm
Structure (SMILES): Cc1cc2c3ccccc3[nH]c2c2[nH]c3ccccc3c12

emission maximum (in CCO): 584 nm | emission maximum (in ClCCl): 582 nm
Structure (SMILES): Cc1ccccc1-c1c2ccc(=[N+]3CCCCC3)cc-2oc2cc(N3CCCCC3)ccc12

emission maximum (in ClC(Cl)Cl): 527 nm
Structure (SMILES): CCCCc1ccc(-n2c3c4cc(F)ccc4nc(-c4ccc(OC)cc4)c3c3c2c2c(-c4ccc(OC)cc4)nc4ccc(F)cc4c2n3-c2ccc(CCCC)cc2)cc1

emission maximum (in CC#N): 430 nm
Structure (SMILES): C=CC(=O)Oc1ccc2cc(C=C)c(=O)oc2c1

emission maximum (in ClC(Cl)Cl): 619 nm
Structure (SMILES): CN1C(=CC2=C([O-])C(=Cc3oc4ccccc4[n+]3C)C2=O)C(C)(C)c2ccccc21

emission maximum (in C1CCCCC1): 324 nm
Structure (SMILES): CCCC1(CCC)c2cc(C#N)ccc2-c2ccc(C#N)cc21

emission maximum (in C1COCCO1): 402 nm | emission maximum (in CC#N): 415 nm | emission maximum (in CO): 432 nm | emission maximum (in ClCCl): 409 nm
Structure (SMILES): COC(=O)c1nc2c(N(C)C)nc(N(C)C)nc2n1Cc1ccccc1

emission maximum (in CC#N): 407 nm
Structure (SMILES): C[C@]12SC(=O)C=C1c1nc(-c3ccccc3O)[nH]c1C1=CC(=O)S[C@@]12C

emission maximum (in O): 564 nm
Structure (SMILES): CC[n+]1nc2cc3c4c(c2c2cc(F)ccc21)CCCN4CCC3

emission maximum (in CC#N): 453 nm | emission maximum (in CCO): 464 nm | emission maximum (in CCOC(C)=O): 435 nm | emission maximum (in CO): 469 nm | emission maximum (in ClC(Cl)Cl): 443 nm | emission maximum (in OCC(F)(F)F): 496 nm
Structure (SMILES): COc1ccc2cc3c(C)cc(=O)oc3cc2c1

emission maximum (in CS(C)=O): 424 nm
Structure (SMILES): COc1cc(-c2nc3sc4ccccc4c3s2)cc(OC)c1OC
